According to ChEMBL document CHEMBL5678818, “Discovery of potent SOS1 inhibitors that block RAS activation via disruption of the RAS-SOS1 interaction” (Proc Natl Acad Sci U S A, 2019):

Legend:
[1] = biological target: Casein kinase I isoform gamma-1 (Homo sapiens) (UniProt Q9HCP0); experiment: Inhibition of CSNK1G1 (unknown origin) assessed as residual activity at 1000 nM by KINOMEscan analysis relative to control
[2] = biological target: Serine/threonine-protein kinase Chk2 (Homo sapiens) (UniProt O96017); experiment: Inhibition of CHEK2 (unknown origin) assessed as residual activity at 1000 nM by KINOMEscan analysis relative to control
[3] = test system: Receptor-type tyrosine-protein kinase FLT3 (Homo sapiens), P36888 [K663Q]; experiment: Inhibition of FLT3 K663Q mutant (unknown origin) assessed as residual activity at 1000 nM by KINOMEscan analysis relative to control
[4] = biological target: Tyrosine-protein kinase ABL2 (Homo sapiens) (UniProt P42684); experiment: Inhibition of ABL2 (unknown origin) assessed as residual activity at 1000 nM by KINOMEscan analysis relative to control
[5] = biological target: Serine/threonine-protein kinase MRCK gamma (Homo sapiens) (UniProt Q6DT37); experiment: Inhibition of DMPK2 (unknown origin) assessed as residual activity at 1000 nM by KINOMEscan analysis relative to control
[6] = biological target: T1, Cyclin-dependent kinase-like 5 (Homo sapiens) (UniProt O76039); experiment: Inhibition of CDKL5 (unknown origin) assessed as residual activity at 1000 nM by KINOMEscan analysis relative to control
T1 sequence (whole entry): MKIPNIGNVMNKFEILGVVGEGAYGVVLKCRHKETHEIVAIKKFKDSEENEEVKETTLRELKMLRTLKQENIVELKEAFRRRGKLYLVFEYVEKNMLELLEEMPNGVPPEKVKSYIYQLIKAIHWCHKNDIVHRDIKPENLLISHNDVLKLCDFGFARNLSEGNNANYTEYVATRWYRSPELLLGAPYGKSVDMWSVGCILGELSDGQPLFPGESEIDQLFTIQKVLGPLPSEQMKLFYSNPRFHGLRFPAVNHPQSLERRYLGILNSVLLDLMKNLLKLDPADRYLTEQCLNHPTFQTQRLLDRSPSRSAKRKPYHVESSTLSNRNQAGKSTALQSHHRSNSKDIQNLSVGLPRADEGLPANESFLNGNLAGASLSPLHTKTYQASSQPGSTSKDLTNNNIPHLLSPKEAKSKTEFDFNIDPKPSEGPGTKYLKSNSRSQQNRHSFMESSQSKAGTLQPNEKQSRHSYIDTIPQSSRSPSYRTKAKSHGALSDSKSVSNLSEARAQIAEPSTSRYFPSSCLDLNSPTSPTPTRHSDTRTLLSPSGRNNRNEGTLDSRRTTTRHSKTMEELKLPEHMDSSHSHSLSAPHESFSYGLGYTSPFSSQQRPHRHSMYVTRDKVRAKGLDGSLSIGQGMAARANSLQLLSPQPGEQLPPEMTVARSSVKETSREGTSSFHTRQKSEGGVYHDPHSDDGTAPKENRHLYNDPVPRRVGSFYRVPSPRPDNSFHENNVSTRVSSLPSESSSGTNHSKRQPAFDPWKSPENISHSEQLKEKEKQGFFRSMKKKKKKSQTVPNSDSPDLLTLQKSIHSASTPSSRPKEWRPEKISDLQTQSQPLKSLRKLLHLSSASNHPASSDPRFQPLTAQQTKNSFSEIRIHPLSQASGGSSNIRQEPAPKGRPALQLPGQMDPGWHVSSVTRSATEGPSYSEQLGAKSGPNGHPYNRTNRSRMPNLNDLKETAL

[7] = biological target: STE20/SPS1-related proline-alanine-rich protein kinase (Homo sapiens) (UniProt Q9UEW8); experiment: Inhibition of STK39 (unknown origin) assessed as residual activity at 1000 nM by KINOMEscan analysis relative to control
[8] = biological target: T2, Myosin-IIIb (Homo sapiens) (UniProt Q8WXR4); experiment: Inhibition of MYO3B (unknown origin) assessed as residual activity at 1000 nM by KINOMEscan analysis relative to control
T2 sequence (whole entry): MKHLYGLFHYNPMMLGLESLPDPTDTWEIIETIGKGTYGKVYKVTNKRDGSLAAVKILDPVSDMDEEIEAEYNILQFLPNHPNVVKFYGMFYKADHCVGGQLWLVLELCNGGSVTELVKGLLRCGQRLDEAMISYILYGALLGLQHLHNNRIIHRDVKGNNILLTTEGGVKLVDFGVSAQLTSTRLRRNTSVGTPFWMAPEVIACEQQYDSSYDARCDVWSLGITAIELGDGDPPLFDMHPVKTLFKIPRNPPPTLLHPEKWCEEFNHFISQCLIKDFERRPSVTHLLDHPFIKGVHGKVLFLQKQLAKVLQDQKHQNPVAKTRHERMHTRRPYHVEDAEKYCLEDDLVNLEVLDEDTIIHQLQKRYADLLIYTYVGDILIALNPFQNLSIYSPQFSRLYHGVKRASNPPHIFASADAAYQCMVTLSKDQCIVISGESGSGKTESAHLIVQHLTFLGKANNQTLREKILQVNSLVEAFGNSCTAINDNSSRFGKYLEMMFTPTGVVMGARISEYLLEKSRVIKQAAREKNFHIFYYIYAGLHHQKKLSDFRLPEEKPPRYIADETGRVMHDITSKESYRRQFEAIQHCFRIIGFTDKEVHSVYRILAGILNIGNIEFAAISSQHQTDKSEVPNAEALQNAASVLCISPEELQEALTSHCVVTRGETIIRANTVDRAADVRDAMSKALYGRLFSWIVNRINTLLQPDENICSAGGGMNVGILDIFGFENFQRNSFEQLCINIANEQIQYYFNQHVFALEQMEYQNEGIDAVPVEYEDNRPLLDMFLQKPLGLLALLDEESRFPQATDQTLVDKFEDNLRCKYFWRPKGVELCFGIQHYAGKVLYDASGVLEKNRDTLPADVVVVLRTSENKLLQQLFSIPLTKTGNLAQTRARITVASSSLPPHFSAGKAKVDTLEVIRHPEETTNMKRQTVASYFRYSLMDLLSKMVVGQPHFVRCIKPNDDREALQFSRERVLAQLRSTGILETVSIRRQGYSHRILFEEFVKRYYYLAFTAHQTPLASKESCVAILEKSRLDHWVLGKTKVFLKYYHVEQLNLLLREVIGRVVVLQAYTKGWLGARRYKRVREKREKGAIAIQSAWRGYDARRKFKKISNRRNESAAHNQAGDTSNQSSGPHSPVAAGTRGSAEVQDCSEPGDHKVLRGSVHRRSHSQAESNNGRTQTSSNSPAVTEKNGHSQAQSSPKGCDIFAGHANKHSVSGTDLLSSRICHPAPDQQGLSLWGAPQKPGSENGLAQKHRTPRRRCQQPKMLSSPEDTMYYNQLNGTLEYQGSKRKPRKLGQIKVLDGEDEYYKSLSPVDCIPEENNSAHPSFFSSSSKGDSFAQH

[9] = biological target: Receptor-type tyrosine-protein kinase FLT3 (Homo sapiens) (UniProt P36888); experiment: Inhibition of autoinhibited FLT3 (unknown origin) assessed as residual activity at 1000 nM by KINOMEscan analysis relative to control

Chain of Serine/threonine-protein kinase MRCK gamma (Homo sapiens) (Q6DT37 whole entry): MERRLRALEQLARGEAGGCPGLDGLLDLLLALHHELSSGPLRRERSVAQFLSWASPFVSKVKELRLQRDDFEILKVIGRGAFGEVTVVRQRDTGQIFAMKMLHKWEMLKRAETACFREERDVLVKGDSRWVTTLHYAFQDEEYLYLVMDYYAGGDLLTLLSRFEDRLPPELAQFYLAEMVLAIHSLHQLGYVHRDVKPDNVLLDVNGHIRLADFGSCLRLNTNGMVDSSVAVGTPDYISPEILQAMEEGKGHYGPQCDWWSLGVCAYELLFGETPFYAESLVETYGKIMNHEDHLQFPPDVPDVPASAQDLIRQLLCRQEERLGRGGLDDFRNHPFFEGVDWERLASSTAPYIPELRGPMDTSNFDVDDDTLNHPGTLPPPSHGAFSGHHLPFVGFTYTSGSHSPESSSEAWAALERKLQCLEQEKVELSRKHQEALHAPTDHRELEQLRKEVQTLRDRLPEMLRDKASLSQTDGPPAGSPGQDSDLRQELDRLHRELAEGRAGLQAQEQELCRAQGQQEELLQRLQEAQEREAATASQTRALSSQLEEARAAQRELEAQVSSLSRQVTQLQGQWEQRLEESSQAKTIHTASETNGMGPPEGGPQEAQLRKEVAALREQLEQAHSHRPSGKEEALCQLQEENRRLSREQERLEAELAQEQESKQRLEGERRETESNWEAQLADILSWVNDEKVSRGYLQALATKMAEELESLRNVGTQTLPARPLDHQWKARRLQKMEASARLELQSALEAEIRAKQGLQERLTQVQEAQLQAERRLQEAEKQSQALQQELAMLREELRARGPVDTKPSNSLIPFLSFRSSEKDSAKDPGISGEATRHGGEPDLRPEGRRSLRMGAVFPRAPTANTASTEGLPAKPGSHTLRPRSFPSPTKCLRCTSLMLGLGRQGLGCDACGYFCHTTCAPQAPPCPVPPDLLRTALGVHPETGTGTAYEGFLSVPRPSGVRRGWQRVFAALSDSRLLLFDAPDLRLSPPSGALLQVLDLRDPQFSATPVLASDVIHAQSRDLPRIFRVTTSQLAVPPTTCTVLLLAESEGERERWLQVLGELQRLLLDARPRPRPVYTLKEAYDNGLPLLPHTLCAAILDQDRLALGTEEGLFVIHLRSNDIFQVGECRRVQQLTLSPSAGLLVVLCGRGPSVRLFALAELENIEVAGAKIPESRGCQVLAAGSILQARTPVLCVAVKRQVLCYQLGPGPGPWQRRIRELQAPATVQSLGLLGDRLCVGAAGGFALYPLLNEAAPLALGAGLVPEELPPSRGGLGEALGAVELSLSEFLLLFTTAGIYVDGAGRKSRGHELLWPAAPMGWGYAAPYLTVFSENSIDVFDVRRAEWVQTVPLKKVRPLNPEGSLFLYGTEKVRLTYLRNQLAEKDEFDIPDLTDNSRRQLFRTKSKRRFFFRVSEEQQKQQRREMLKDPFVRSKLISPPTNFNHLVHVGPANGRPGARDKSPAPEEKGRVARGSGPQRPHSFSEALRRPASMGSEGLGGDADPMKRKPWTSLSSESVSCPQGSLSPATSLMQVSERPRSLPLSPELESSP
Chain of Casein kinase I isoform gamma-1 (Homo sapiens) (Q9HCP0 whole entry, looked up, canonical isoform): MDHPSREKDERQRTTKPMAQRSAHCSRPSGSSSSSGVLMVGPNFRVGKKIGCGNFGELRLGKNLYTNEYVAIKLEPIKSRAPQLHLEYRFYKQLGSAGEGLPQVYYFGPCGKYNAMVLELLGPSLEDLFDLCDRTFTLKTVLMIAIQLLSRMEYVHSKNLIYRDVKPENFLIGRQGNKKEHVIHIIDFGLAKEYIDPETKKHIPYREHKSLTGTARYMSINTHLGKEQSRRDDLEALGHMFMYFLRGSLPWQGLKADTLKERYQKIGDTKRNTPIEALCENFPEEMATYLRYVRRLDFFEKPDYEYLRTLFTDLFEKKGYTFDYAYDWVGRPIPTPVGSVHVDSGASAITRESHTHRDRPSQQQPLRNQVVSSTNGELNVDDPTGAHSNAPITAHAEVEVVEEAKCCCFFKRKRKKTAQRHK
Chain of Tyrosine-protein kinase ABL2 (Homo sapiens) (P42684 whole entry): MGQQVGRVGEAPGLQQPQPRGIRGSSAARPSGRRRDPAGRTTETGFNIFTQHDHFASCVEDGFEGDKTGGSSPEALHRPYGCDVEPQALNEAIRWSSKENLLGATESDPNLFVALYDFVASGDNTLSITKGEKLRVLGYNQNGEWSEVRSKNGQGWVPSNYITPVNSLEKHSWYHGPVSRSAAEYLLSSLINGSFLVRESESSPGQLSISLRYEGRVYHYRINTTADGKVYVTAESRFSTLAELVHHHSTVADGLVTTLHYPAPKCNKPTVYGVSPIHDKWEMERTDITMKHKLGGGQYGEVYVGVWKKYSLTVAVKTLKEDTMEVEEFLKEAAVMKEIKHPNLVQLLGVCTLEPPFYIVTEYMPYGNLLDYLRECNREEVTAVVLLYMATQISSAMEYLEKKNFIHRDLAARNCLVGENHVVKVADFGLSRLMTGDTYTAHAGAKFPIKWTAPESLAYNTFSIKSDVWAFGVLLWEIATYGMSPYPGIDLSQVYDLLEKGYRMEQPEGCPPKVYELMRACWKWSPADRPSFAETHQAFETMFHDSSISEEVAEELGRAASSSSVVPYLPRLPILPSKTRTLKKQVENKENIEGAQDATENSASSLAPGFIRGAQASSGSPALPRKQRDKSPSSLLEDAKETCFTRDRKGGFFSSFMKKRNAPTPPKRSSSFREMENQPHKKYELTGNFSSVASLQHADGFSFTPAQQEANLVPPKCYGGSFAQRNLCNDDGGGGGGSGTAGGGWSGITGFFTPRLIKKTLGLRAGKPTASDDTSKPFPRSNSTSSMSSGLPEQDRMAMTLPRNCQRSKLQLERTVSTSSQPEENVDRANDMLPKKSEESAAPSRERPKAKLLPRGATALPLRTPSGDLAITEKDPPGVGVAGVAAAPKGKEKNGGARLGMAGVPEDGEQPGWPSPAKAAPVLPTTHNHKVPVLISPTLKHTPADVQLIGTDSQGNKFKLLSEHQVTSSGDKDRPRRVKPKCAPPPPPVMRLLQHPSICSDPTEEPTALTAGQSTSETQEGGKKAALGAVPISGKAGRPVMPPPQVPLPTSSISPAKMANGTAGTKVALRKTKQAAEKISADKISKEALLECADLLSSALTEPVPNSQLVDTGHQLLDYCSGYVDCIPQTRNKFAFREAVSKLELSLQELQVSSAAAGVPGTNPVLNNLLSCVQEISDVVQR
Chain of Serine/threonine-protein kinase Chk2 (Homo sapiens) (O96017 whole entry): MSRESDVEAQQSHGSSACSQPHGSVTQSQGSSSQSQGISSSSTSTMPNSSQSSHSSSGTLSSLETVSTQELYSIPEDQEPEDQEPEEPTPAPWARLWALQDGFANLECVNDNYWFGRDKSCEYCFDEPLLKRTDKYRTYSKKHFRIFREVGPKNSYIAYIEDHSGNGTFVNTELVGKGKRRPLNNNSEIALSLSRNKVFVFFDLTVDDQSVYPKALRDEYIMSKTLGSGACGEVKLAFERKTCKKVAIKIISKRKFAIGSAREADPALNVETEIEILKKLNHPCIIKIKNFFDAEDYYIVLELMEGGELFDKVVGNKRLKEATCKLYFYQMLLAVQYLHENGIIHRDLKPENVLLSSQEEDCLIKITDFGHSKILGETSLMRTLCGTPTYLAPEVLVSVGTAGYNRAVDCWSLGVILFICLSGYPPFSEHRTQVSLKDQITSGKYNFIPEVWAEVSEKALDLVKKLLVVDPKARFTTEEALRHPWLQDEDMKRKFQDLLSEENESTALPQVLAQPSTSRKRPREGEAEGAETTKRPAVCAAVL

| Structure (SMILES) | Activity [1] [%] | Activity [2] [%] | Activity [3] [%] | Activity [4] [%] | Activity [5] [%] | Activity [6] [%] | Activity [7] [%] | Activity [8] [%] | Activity [9] [%] |
| --- | --- | --- | --- | --- | --- | --- | --- | --- | --- |
| COc1cc2nc(C)nc(N[C@H](C)c3cccc(-c4cn[nH]c4)c3)c2cc1OC | 96 | 89 | 90 | 73 | 100 | 82 | 76 | 89 | 100 |
| COc1cc2ncnc(N[C@H](C)c3cccc4ccccc34)c2cc1OC | 100 | 73 | 96 | 100 | 93 | 94 | 100 | 88 | 87 |
